Entries after “also recorded” stand apart in the source; their conditions may differ.

The assay deals with dnTGF-βRII mice. Kind of assay: dnTGF-βRII mice 32-34 wk (late stage PBC model) treated 1 wk by osmotic minipump. The format is in vivo, mouse. As to conditions: for intrahepatic bile duct mass (IBDM, CK-19): 1 wk minipump. As to the method:
Briefly, we used wild-type (WT), dnTGFβRII 12 wk and dnTGFβRII 34 wk mice treated with control or SR antagonist (SCT 5-27) minipump (10 μg/kg/day) for 1 wk. Hepatic damage was shown by H&E. IBDM and cholangiocyte proliferation were measured by immunohistochemistry for CK-19 and Ki67, respectively. Biliary apoptosis was evaluated by TUNEL staining. Senescence was measured in cholangiocytes by immunofluorescence for CCL2 or p16 co-stained with CK-19 (to image bile ducts) and SA-β-Galactosidase activity. Hepatic fibrosis was assessed by qPCR for collagen-1a and α-SMA in total liver, and quantification of Sirius Red staining. Hepatic stellate cell (HSC) activation was evaluated by immunofluorescence (IF) for Syp-9. HSC senescence was evaluated by IF for CCL2 or p16 co-stained with desmin (to visualize HSCs). Secretin levels in serum and bile were measured by EIA. Bile and serum were obtained from human control, early PBC and advanced PBC patients, and secretin was evaluated by EIA.
All animal procedures were performed according to protocols approved by the Baylor Scott & White Health IACUC Committee. Transgenic mice expressing a dominant-negative form of the human transforming growth factor-beta receptor II (dnTGF-βRII) were obtained from Dr. M. Eric Gershwin at UC Davis Health (Sacramento, Calif.), and background-matched wild-type (WT, strain C57BL/6) mice were purchased from Charles River Laboratories (Wilmington, Mass.); the breeding colony is established in our animal facility. Animals were maintained in micro-isolator cages in a temperature-controlled environment with 12/12-hr light/dark cycles and fed ad libitum standard chow with free access to drinking water. Studies were performed in 12 wk-old WT mice, and 12 wk-old (mimic early stage PBC) and 32 wk-old (mimic late stage PBC) female and male dnTGF-βRII mice (25-30 gm) that were treated with either saline, secretin (Sct; 2.5 nmoles/kg body weight per day; Bachem, Torrance, Calif.) or the secretin receptor (SR) antagonist, Sec 5-27 (10 μg/kg body weight per day; Thermo Fisher Scientific, Waltham, Mass.) for 1 wk by intraperitoneally implanted osmotic minipump. Liver tissue samples and blocks (formalin-fixed, paraffin-embedded and OCT-embedded), serum, bile, cholangiocytes, and cholangiocyte supernatants (after incubation at 37° C. for 4 hr) were collected as described.
Hematoxylin and eosin (H&E) staining was performed in formalin-fixed, paraffin-embedded liver sections (4-5 μm, 3 samples from 3 different animals) to determine liver morphology. H&E stained liver sections were evaluated by a board-certified pathologist to assess the degree of lobular damage, hepatic necrosis and portal inflammation. At least 10 different portal areas were evaluated for each parameter. Liver sections were examined in a coded fashion by BX-51 light microscopy (Olympus, Tokyo, Japan) equipped with a camera (See, Mancinelli, R et al., Ischemia reperfusion of the hepatic artery induces the functional damage of large bile ducts by changes in the expression of angiogenic factors. Am J Physiol Gastrointest Liver Physiol 2015; 309:G865-873 (2015); Taffetani S et al., Prolactin stimulates the proliferation of normal female cholangiocytes by differential regulation of Ca2+-dependent PKC isoforms, BMC Physiol 7:6 (2007)).
Serum levels of alkaline phosphatase (ALP) and γ-glutamyltransferase (γGT) are commonly used to diagnose PBC (Heathcote, E J, Management of primary biliary cirrhosis. The American Association for the Study of Liver Diseases practice guidelines, Hepatology 31:1005-1013 (2000)); therefore, were measured serum levels of ALP and γGT in mouse serum samples using the Alkaline Phosphatase Assay Kit and γ-Glutamyltransferase Activity Colorimetric Assay Kit, respectively (Abcam; Cambridge, Mass.).
Early stage PBC is identified by cholangiocyte proliferation, whereas late stage PBC is characterized by ductopenia. […]

The mark [1] stands for this setting: dnTGF-βRII 32/34 wk, vs saline treated.

On to secretin [Sct], for which, where the note is “dnTGF-βRII 32/34 wk”, the “biliary senescence (p16, p18, p21, CCL2)” value was “reduced”; the “cholangiocyte apoptosis (TUNEL)” value is on record as “reduced”; the “collagen content / deposition (Sirius Red), hepatic fibrosis” value is on record as “decreased; also recorded: reduced”. Further, under setting [1], the “Sct, SR, CFTR and AE2 expression” value is “increased expression”; the “intrahepatic bile duct mass (IBDM, CK-19)” value was “increased”. For the same substance, the “intrahepatic bile duct mass (IBDM, CK-19)” value (dnTGF-βRII 32/34 wk, vs saline treated, listed as secretin) was “increased biliary mass in the late stage PBC mice back to normal levels”. Moreover, the “collagen content / deposition (Sirius Red), hepatic fibrosis” value (dnTGF-βRII 32/34 wk, listed as secretin) is reported as “significantly reduced”. Also, for the setting “dnTGF-βRII 34 wk”, the “HSC activation (SYP-9)” value is reported as “reduced”; the “biliary growth / cholangiocyte proliferation” value is “increased”; the “liver damage (H&E)” value is listed as “ameliorate; also recorded: reduced”; the “secretin levels (serum; serum and bile)” value is “increased”. Moreover, the “Liver inflammation, Kupffer cell number” value (dnTGFβRII 12 and 34 wk as printed) is listed as “reduced”. Also, the TBA levels result (dnTGFβRII 34 wk) is recorded as “reduced”. Moreover, the “serum levels of ALP and γGT” value (late stage PBC model) was “reduced”.

The values above are taken from patent US11318190B2, “Methods and compositions for treating liver disease” (UNITED STATES GOVERNMENT AS REPRESENTED BY THE DEPARTMENT …, priority 2017, dated 2022).
